Assays:
TNF-α = experiment: LPS-induced TNF-α expression in mouse bone marrow-derived dendritic cells, ELISA; assay type: cell-based; settings: LPS 100 ng/ml plus BrD1 at different concentrations, 24 h
From the text: For mouse bone marrow-derived DCs (BMDCs), five to six-week-old female C57BL/6JNarl mice were purchased from the National Laboratory Animal Center, Taiwan and kept under SPF conditions. BMDCs were generated from bone marrow cells of C57BL/6 mice as described previously (Yin S Y, Wang W H, Wang B X, Aravindaram K, Hwang P I, Wu H M, Yang N S. BMC genomics 2010, 11:612). In brief, bone marrow was isolated from femurs and tibiae which were then flushed with RPMI-1640 medium using a syringe with a 0.45-mm needle on Day 0. Red blood cells in suspension were lysed for […] with ACK lysing buffer (150 mM NH4Cl, 1.0 mM KHCO3, 0.1 mM EDTA). Bone marrow cells were suspended at a density of 1×10^7 cells/30 ml in RPMI-1640 containing 10% FBS, 2 mM L-glutamine, 1% of nonessential amino acids, 100 U/mL penicillin and 100 μg/mL streptomycin supplemented with 20 ng/mL of mGM-CSF in 15-cm dishes at 37° C. with 5% CO2. On day 2, two-thirds of the medium was removed and 30 mL fresh medium with mGM-CSF was added to the cells. On day 5, culture plates were gently swirled and the floating and loosely adherent cells were discarded. Aliquots of 75% culture media were replenished with 20 ng/mL mGM-CSF and 20 ng/mL mIL-4. […]

MMP-9 = experiment: TPA-induced MMP-9 protein expression in mouse skin, western blot; assay type: in vivo; settings: for TPA-induced MMP-9 protein expression (in words): topical after TPA, 24 h, indicated concentrations
Protocol: Shaven abdominal skins of female C57BL/6JNarl mice were not treated or topically treated with vehicle (acetone, 200 μl/site) or TPA (10 nmol in 200 μl acetone/site) at indicated time points or treated first with TPA for 10 min, then with the indicated concentrations of BrD1 at the indicated time points. Abdominal skin samples were collected, homogenated and lysed to prepare total proteins. Protein samples were subsequently resolved by SDS-PAGE using a gradient gel. The resolved proteins were transferred to a PVDF Immobilon-P membrane (Millipore, Bedford, Calif.), and the membrane was blocked with 5% non-fat dry milk in PBST buffer (phosphate-buffered saline (PBS) containing 0.1% Tween 20) for 60 minutes at room temperature. The membranes were incubated overnight at 4° C. with commercially available antibodies (1:1000 dilutions). Loading of equal amounts of protein was assessed using mouse β-actin. The blots were rinsed three times with PBST buffer for 5 minutes. Washed blots were incubated with HRP-conjugated secondary antibody (1:100,000 dilution), then washed again three times with PBST buffer. The transferred proteins were visualized with an enhanced chemiluminescence (ECL) detection kit (Amersham Pharmacia Biotech, Buckinghamshire, UK). Quantification of bands was performed using Image J software.
(§1) Matrix metalloproteinases (MMPs) play a crucial role in many physiological and pathological processes through remodeling extracellular matrix tissues (Stamenkovic I. J Pathol 2003, 200:448-464). Matrix metalloproteinase-9 (MMP-9), a gelatinase which has a key role in inflammatory response, is activated in skin during tissue injury (Shakarjian M P, Bhatt P, Gordon M K, Chang Y C, Casbohm S L, Rudge T L, Kiser R C, Sabourin C L, Casillas R P, Ohman-Strickland P, Riley D J, Gerecke D R. J Appl Toxicol 2006, 26:239-246). In order to evaluate the anti-inflammatory effect of BrD1 on MMP-9 activation in TPA-inflamed skin, BrD1 was topically applied after TPA treatment for 24 h. […] Inhibiton of TPA-inducedMMP-9 expression by BrD1 treatment could also be readily observed at the mRNA level.

MMP-9 mRNA = experiment: TPA-induced MMP-9 mRNA expression in mouse skin, RT-PCR; assay type: in vivo; settings: for TPA-induced MMP-9 mRNA expression (in words): topical after TPA, 6 h, indicated concentrations
Protocol: Shaven abdominal skins of female C57BL/6JNarl mice were untreated or topically treated with vehicle (acetone, […]) or TPA (10 nmol in […]) for 6 h or treated first with TPA for 10 min and then with the indicated concentrations of BrD1 for 6 h. Total RNA was extracted from treated abdominal skins of female mice using TRIzol reagent (Invitrogen Corp., Carlsbad, Calif.). RT-PCR reactions using AccessQuick RT-PCR system (Promega, Madison, Wis.) were carried out as described previously. The primers contained the following sequences: mouse MMP-9 sense primer 5′-[…]-3′ (SEQ ID NO. 1), and anti-sense primer 5′-[…]-3′ (SEQ ID NO. 2); mouse GAPDH sense primer 5′-[…]-3′ (SEQ ID NO. 3), and anti-sense primer 5′-[…]-3′ (SEQ ID NO. 4). Gel images were scanned and densitometry analysis of the captured image was performed using Gene Tools software (Syngene, Cambridge, UK).
as §1

## CCCC(=O)O[C@H]1C/C(C)=C\[C@@H]2OC(=O)[C@]3(C)O[C@]23[C@@H](OC(C)=O)[C@H]2[C@@H](C)[C@@H](O)C[C@H](OC(C)=O)[C@]2(C)[C@H]1OC(C)=O [BrD1, excavatolide B]
TNF-α
  TNF-α expression in LPS-stimulated dendritic cells: inhibited TNF-a expression to a much lesser extent
TNF-α; listed as Excavatolide B
  TNF-α expression in LPS-stimulated dendritic cells: inhibits TNF-α expression to a much lesser extent
MMP-9; 1 mg/site/mouse topical, 24 h after TPA
  inhibition of TPA-induced MMP-9 protein expression: ≤ 89%
MMP-9
  TPA-induced MMP-9 protein expression (in words): significantly inhibited TPA-induced MMP-9 protein expression in a dose-dependent manner
MMP-9; listed as excavatolide B
  TPA-induced MMP-9 protein expression (in words): significantly inhibits TPA-induced MMP-9 protein expression in a dose-dependent manner
MMP-9 mRNA; 1 mg/site/mouse topical, 6 h after TPA
  inhibition of TPA-induced MMP-9 mRNA expression: ≤ 82%
MMP-9 mRNA
  TPA-induced MMP-9 mRNA expression (in words): significantly inhibited MMP-9 mRNA expression in a dose-dependent manner
MMP-9 mRNA; listed as excavatolide B
  TPA-induced MMP-9 mRNA expression (in words): significantly inhibits MMP-9 mRNA expression in a dose-dependent manner
